In the NIST ThermoML archive (doi:10.1021/je049903o):
± gives the expanded uncertainty stated by the source.

Conditions: 298.15 K; 101.33 kPa; Liquid

| mass density [kg/m3] | SMILES |
| --- | --- |
| 726.357 ± 0.83 | CCCCCCCCCC [decane] |
| 1007.12 ± 0.53 | COCCOCCOCCOCCOC [2,5,8,11,14-pentaoxapentadecane] |
| 698.548 ± 0.53 | CCCCCCCC [octane] |
| 980.625 ± 0.52 | COCCOCCOCCOC [2,5,8,11-tetraoxadodecane] |
| 679.542 ± 0.45 | CCCCCCC [heptane] |
| 759.274 ± 0.51 | CCCCCCCCCCCCCC [tetradecane] |
